Experimental data taken from ChEMBL document CHEMBL1255397, “Attenuation of cerebrospinal fluid inflammation by the nonbacteriolytic antibiotic daptomycin versus that by ceftriaxone in experimental pneumococcal meningitis” (Antimicrob Agents Chemother, 2010).

Legend:
Rattus norvegicus [1] = assay: Decrease in severity of cortical damage in Streptococcus pneumoniae serotype 3 clinical isolate infected in Wistar rat at 50 mg/kg, sc administered 18 hrs post infection measured after 2 to 6 hrs; type: functional; details: route subcutaneous
Rattus norvegicus [2] = assay: Toxicity in Streptococcus pneumoniae serotype 3 clinical isolate infected in Wistar rat assessed as decrease in CSF TNF-alpha concentration at 50 mg/kg, sc administered 18 hrs post infection measured after 2 to 6 hrs by microsphere-based multiplex assay; type: organism-based; design: dose 50 mg/kg, route subcutaneous; details: in vivo
Rattus norvegicus [3] = assay: Toxicity in against Streptococcus pneumoniae serotype 3 clinical isolate infected in Wistar rat assessed as increase in CSF IL-18 concentration at 100 mg/kg, sc administered 18 hrs post infection measured after 2 to 6 hrs by microsphere-based multiplex assay; type: organism-based; design: dose 100 mg/kg, route subcutaneous; details: in vivo
Streptococcus pneumoniae = assay: Antimicrobial activity against Streptococcus pneumoniae serotype 3 clinical isolate infected in Wistar rat assessed as cerebrospinal fluid bacterial titer at 50 mg/kg, sc administered 18 hrs post infection measured after 4 hrs; type: functional; details: route subcutaneous
Rattus norvegicus [4] = assay: Toxicity in Streptococcus pneumoniae serotype 3 clinical isolate infected in Wistar rat assessed as decrease in CSF CXCL1 concentration at 50 mg/kg, sc administered 18 hrs post infection measured after 2 to 6 hrs by microsphere-based multiplex assay; type: organism-based; design: dose 50 mg/kg, route subcutaneous; details: in vivo
Rattus norvegicus [5] = assay: Toxicity in Streptococcus pneumoniae serotype 3 clinical isolate infected in Wistar rat assessed as decrease in CSF IL-6 concentration at 50 mg/kg, sc administered 18 hrs post infection measured after 2 to 6 hrs by microsphere-based multiplex assay; type: organism-based; design: dose 50 mg/kg, route subcutaneous; details: in vivo
Rattus norvegicus [6] = assay: Toxicity in Streptococcus pneumoniae serotype 3 clinical isolate infected in Wistar rat assessed as decrease in CSF MCP-1 concentration at 50 mg/kg, sc administered 18 hrs post infection measured after 2 to 6 hrs by microsphere-based multiplex assay; type: organism-based; design: dose 50 mg/kg, route subcutaneous; details: in vivo
Rattus norvegicus [7] = assay: Toxicity in Streptococcus pneumoniae serotype 3 clinical isolate infected in Wistar rat assessed as decrease in CSF MIP-1alpha concentration at 50 mg/kg, sc administered 18 hrs post infection measured after 2 to 6 hrs by microsphere-based multiplex assay; type: organism-based; design: dose 50 mg/kg, route subcutaneous; details: in vivo
Rattus norvegicus [8] = assay: Toxicity in Streptococcus pneumoniae serotype 3 clinical isolate infected in Wistar rat assessed as increase in CSF MIP-1alpha concentration at 100 mg/kg, sc administered 18 hrs post infection measured after 2 to 6 hrs by microsphere-based multiplex assay; type: organism-based; design: dose 100 mg/kg, route subcutaneous; details: in vivo
Rattus norvegicus [9] = assay: Toxicity in against Streptococcus pneumoniae serotype 3 clinical isolate infected in Wistar rat assessed as decrease in CSF IL-18 concentration at 50 mg/kg, sc administered 18 hrs post infection measured after 2 to 6 hrs by microsphere-based multiplex assay; type: organism-based; design: dose 50 mg/kg, route subcutaneous; details: in vivo
Rattus norvegicus [10] = assay: Toxicity in Streptococcus pneumoniae serotype 3 clinical isolate infected in Wistar rat assessed as increase in CSF MCP-1 concentration at 100 mg/kg, sc administered 18 hrs post infection measured after 2 to 6 hrs by microsphere-based multiplex assay; type: organism-based; design: dose 100 mg/kg, route subcutaneous; details: in vivo
Rattus norvegicus [11] = assay: Toxicity in Streptococcus pneumoniae serotype 3 clinical isolate infected in Wistar rat assessed as decrease in CSF IL1-beta concentration at 50 mg/kg, sc administered 18 hrs post infection measured after 2 to 6 hrs by microsphere-based multiplex assay; type: organism-based; design: dose 50 mg/kg, route subcutaneous; details: in vivo
Rattus norvegicus [12] = assay: Toxicity in Streptococcus pneumoniae serotype 3 clinical isolate infected in Wistar rat assessed as decrease in CSF IL-10 concentration at 50 mg/kg, sc administered 18 hrs post infection measured after 2 to 6 hrs by microsphere-based multiplex assay; type: organism-based; design: dose 50 mg/kg, route subcutaneous; details: in vivo
Rattus norvegicus [13] = assay: Decrease in severity of cortical damage in Streptococcus pneumoniae serotype 3 clinical isolate infected in Wistar rat at 100 mg/kg, sc administered 18 hrs post infection measured after 2 to 6 hrs; type: functional; details: route subcutaneous
Rattus norvegicus [14] = assay: Toxicity in Streptococcus pneumoniae serotype 3 clinical isolate infected in Wistar rat assessed as increase in CSF IL-18 concentration at 50 mg/kg, sc administered 18 hrs post infection measured after 2 to 6 hrs by microsphere-based multiplex assay; type: organism-based; design: dose 50 mg/kg, route subcutaneous; details: in vivo
Rattus norvegicus [15] = assay: Toxicity in Streptococcus pneumoniae serotype 3 clinical isolate infected in Wistar rat assessed as decrease in CSF IL1-beta concentration at 100 mg/kg, sc administered 18 hrs post infection measured after 2 to 6 hrs by microsphere-based multiplex assay; type: organism-based; design: dose 100 mg/kg, route subcutaneous; details: in vivo
Rattus norvegicus [16] = assay: Toxicity in Streptococcus pneumoniae serotype 3 clinical isolate infected in Wistar rat assessed as decrease in CSF IL-10 concentration at 100 mg/kg, sc administered 18 hrs post infection measured after 2 to 6 hrs by microsphere-based multiplex assay; type: organism-based; design: dose 100 mg/kg, route subcutaneous; details: in vivo

SMILES | inhibition in vivo at 50 mg/kg (Rattus norvegicus [1]) | Activity (Rattus norvegicus [2]) | Activity (Rattus norvegicus [3]) | log10CFU/ml (Streptococcus pneumoniae) | Activity (Rattus norvegicus [4]) | Activity (Rattus norvegicus [5]) | Activity (Rattus norvegicus [6]) | Activity (Rattus norvegicus [7]) | Activity (Rattus norvegicus [8]) | Activity (Rattus norvegicus [9]) | Activity (Rattus norvegicus [10]) | Activity (Rattus norvegicus [11]) | Activity (Rattus norvegicus [12]) | inhibition in vivo at 100 mg/kg (Rattus norvegicus [13]) | Activity (Rattus norvegicus [14]) | Activity (Rattus norvegicus [15]) | Activity (Rattus norvegicus [16])
CCCCCCCCCC(=O)N[C@@H](Cc1c[nH]c2ccccc12)C(=O)N[C@H](CC(N)=O)C(=O)N[C@@H](CC(=O)O)C(=O)N[C@@H]1C(=O)NCC(=O)N[C@@H](CCCN)C(=O)N[C@@H](CC(=O)O)C(=O)N[C@H](C)C(=O)N[C@@H](CC(=O)O)C(=O)NCC(=O)N[C@H](CO)C(=O)N[C@@H]([C@H](C)CC(=O)O)C(=O)N[C@@H](CC(=O)c2ccccc2N)C(=O)O[C@@H]1C | 0.13% | Non-toxic | Toxic | < 1000 CFU/ml | Non-toxic | Non-toxic | – | – | – | – | – | – | – | – | – | – | –
CO/N=C(\C(=O)N[C@@H]1C(=O)N2C(C(=O)O)=C(CSc3nc(=O)c(=O)[nH]n3C)CS[C@H]12)c1csc(N)n1 [CEFTRIAXONE] | – | – | – | – | – | – | Non-toxic | Non-toxic | Toxic | Non-toxic | Toxic | Non-toxic | Non-toxic | 4.7% | Toxic | Toxic | Toxic
